Series [1] in a line: Itraconazole subparticle size of milled suspension. It is filed as physicochemical. As to conditions: water and polysorbate 80, milled at 1800 rpm for one hour. Here is the method: Particle Size Reduction using Low Energy Wet Milling. One technique for reducing the particle size of the itraconazole was via low energy wet milling (also known as roller milling, or jar milling). Suspensions of the itraconazole were prepared in an anti-solvent, which can be water, or any solvent in which the active agent is not appreciably soluble. Stabilizers, which can be, but are not limited to, non-ionic surfactants or amphiphilic polymers, are then added to the suspension along with milling media, which can be, but are not limited to, spherical with high wear resistance and in the size range from 0.03 to 0.70 millimeters in diameter. The vessels containing the suspensions are then rotated using a jar mill (US Stoneware, East Palestine, OH USA) while taking samples periodically to assess particle size (LA-950, HORIBA, Kyoto, Japan).
Particle Size Reduction using High Energy Wet Milling: Another technique for reducing the particle size of the itraconazole was via high-energy wet milling using a rotor-stator, or agitated media mill. Suspensions of the itraconazole were prepared in an anti-solvent, which can be water, or any solvent in which the active agent is not appreciably soluble. […]

For series [2] the following is noted: cited from earlier work; for AUC0-24 h / Accumulation ratio AUC0-24 h / Accumulation ratio Cmax / Cmax / Kel / Tmax: inhaled Formulation I.
Series [3] relates to CYP3A4. The following applies: role: inhibitor; unbound Ki, Simcyp V19 file; cited from earlier work.
For series [4] the following is noted: single inhaled dose of 20 mg of dry powder; cited from earlier work.
For series [5] the following is noted: cited from earlier work; for RB / fu: Simcyp V19 file.
[6] abbreviates: Day 1, 35 mg inhaled Formulation I QD.
The mark [7] stands for this setting: Day 14, 35 mg inhaled Formulation I QD.

The text below walks through data of patent US20260335305A1, “METHODS OF USING ITRACONAZOLE DRY POWDERS” (Pulmatrix Operating Company, Inc., priority 2022, published 2026).

Each structure is given as a SMILES string. Where two headings read alike, the source gives them in different places.

Take `CCC(C)n1ncn(-c2ccc(N3CCN(c4ccc(OCC5COC(Cn6cncn6)(c6ccc(Cl)cc6Cl)O5)cc4)CC3)cc2)c1=O` (centres unmarked) [Itraconazole, itraconazole]: the “final median particle size (Dv(50)) of the milled suspension” value in series [1] turned out to be […]. Besides, in series [2] (setting [6]), the “AUC0-24 h, observed mean” value is […] and the “Cmax, observed mean” value is 5.23 ng/mL. For the same compound, in series [2] (setting [7]), the “AUC0-24 h, observed mean” value was […] and the “Cmax, observed mean” value is 15.2 ng/mL. In addition, in series [2] (10 mg), the AUC0-24 h is […], the “Accumulation ratio AUC0-24 h” value is given as […], the “Accumulation ratio Cmax” value was […] and the Cmax is on record as […]. In series [2] (10 mg), the Kel was […] and the Tmax (in general, the time from dosing to the highest level) is on record as […]. For the same compound, in series [2] (20 mg), the AUC0-24 h was […], the “Accumulation ratio AUC0-24 h” value was […], the “Accumulation ratio Cmax” value is […] and the Cmax is recorded as […]. Further, in series [2] (20 mg), the Kel was […] and the Tmax is […]. Moreover, in series [2] (35 mg QD for 14 days), the AUC0-24 h is reported as […], the “Accumulation ratio AUC0-24 h” value is listed as […], the “Accumulation ratio Cmax” value is on record as […] and the Cmax is 15.2 (49.3) ng/mL. In addition, in series [2] (35 mg QD for 14 days), the Kel was […] and the time of peak concentration (Tmax) is recorded as […]. The “Ki, u, ITZ” value in series [3] was […]. Also, in series [4], the lung exposure result is reported as “lung exposures that would be considered therapeutic”. Also, in series [5], the RB is […] and the fu was […].

Regarding `CC(O)C(C)n1ncn(-c2ccc(N3CCN(c4ccc(OCC5COC(Cn6cncn6)(c6ccc(Cl)cc6Cl)O5)cc4)CC3)cc2)c1=O` (centres unmarked) [OH-itraconazole], in series [2] (setting [6]), the “AUC0-24 h, observed mean” value was 38.2 ng·h/mL and the “Cmax, observed mean” value is reported as 2.10 ng/mL. For the same compound, in series [2] (setting [7]), the “AUC0-24 h, observed mean” value is 168 ng·h/mL and the “Cmax, observed mean” value was 8.68 ng/mL. Also, in series [2] (10 mg), the AUC0-24 h was 42.4 (26.1) ng h/mL, the “Accumulation ratio AUC0-24 h” value is recorded as 3.8, the “Accumulation ratio Cmax” value was 3.5 and the Cmax is 2.25 (25.3) ng/mL. In series [2] (10 mg), the Kel was 0.0263 h⁻¹ and the Tmax is 6 h. For the same compound, in series [2] (20 mg), the AUC0-24 h is 128 (56.1) ng h/mL, the “Accumulation ratio AUC0-24 h” value is 4.4, the “Accumulation ratio Cmax” value was 4.2 and the Cmax is reported as 6.43 (54.7) ng/mL. Moreover, in series [2] (20 mg), the Kel was 0.0223 h⁻¹ and the Tmax is recorded as 6 h. Besides, in series [2] (35 mg QD for 14 days), the AUC0-24 h was 169 (116) ng h/mL, the “Accumulation ratio AUC0-24 h” value is 4.5, the “Accumulation ratio Cmax” value is reported as 4.2 and the Cmax is given as 8.68 (91.0) ng/mL. Moreover, in series [2] (35 mg QD for 14 days), the Kel was 0.0248 h⁻¹ and the Tmax is listed as 8 h. In series [3], the “Ki, u, ITZ” value is 2.3 nM. For the same compound, in series [5], the RB is 0.58 and the fu is 0.016.

`Cc1ncc2n1-c1ccc(Cl)cc1C(c1ccccc1F)=NC2` [Midazolam, midazolam]: in series [5] (Simcyp V19 Midazolam File), the fm is listed as 0.84.
